Test results taken from the RepoRT retention time repository.

assay: RP, Waters ACQUITY UPLC BEH C8, 100 × 2.1 mm, 1.7 µm, 55 °C, 0.6 mL/min, estimated dead time 0.37 min; A: 50% water + 25% acetonitrile + 25% isopropanol + 0.05% acetic acid + 20 µM phosphoric acid + 5 mM ammonium acetate; B: 50% acetonitrile + 50% isopropanol + 0.05% acetic acid + 5 mM ammonium acetate; gradient (min/%B) 0/1 0.1/1 2/30 11.5/90 12/99.9 12.5/99.9 12.55/65 12.65/30 12.75/1 12.95/1 13.25/1; details: stereoisomer not certain

LC retention time [min] | Compound
8.4 | CCCCCCCCCCCCCC=CC(O)C(COC1OC(CO)C(OC2OC(CO)C(O)C(O)C2O)C(O)C1O)NC(=O)CCCCCCCCCCCCCCCCCCCCCCC (stereo not drawn) [LacCer(d18:1/24:0)]
7.6 | CCCCCCCCCCCCCCCC(=O)OCC(CO)OC(=O)CCCCCCCCCCCCCCC (stereo not drawn) [DG(16:0/16:0)]
3.74 | CC(C=CC=C(C)C=CC1=C(C)CC(O)CC1(C)C)=CC=CC=C(C)C=CC=C(C)C=CC1C(C)=CC(O)CC1(C)C (stereo not drawn) [Luteine]
7.79 | CCCCCCCCCCCCCC=CC(O)C(COP(=O)([O-])OCC[N+](C)(C)C)NC(=O)CCCCCCCCCCCCCCCCCCCCC (stereo not drawn) [SM(d18:1/22:0)]
7.19 | CCCCCCCCCCCCCC=CC(O)C(CO)NC(=O)CCCCCCCCCCCCCCCCC (stereo not drawn) [Cer(d18:1/18:0)]
7.47 | CCCCCCCCCCCCCCCCCCOCC(COP(=O)([O-])OCC[N+](C)(C)C)OC(=O)CCCCCCCCCCCCCCC (stereo not drawn) [PC(O-18:0/16:0)]
1.58 | CCCCCCCCCCCCCCCC(=O)OCC(O)COP(=O)(O)O (stereo not drawn) [LPA(16:0/0:0)]
1.26 | CCCCCCCCCCCCCC(=O)OC(CC(=O)[O-])C[N+](C)(C)C (stereo not drawn) [Tetradecanoylcarnitine CAR(14:0)]
9 | CCCCCCCCCCCCCC=CC(O)C(CO)NC(=O)CCCCCCCCCCCCCCCCCCCCCCC (stereo not drawn) [Cer(d18:1/24:0)]
2.48 | CCCCCCCCCCCCCCCCCC(=O)OCC(O)COP(=O)(O)OCCN (stereo not drawn) [LPE(18:0/0:0)]
6.5 | CCCCCCCCCCCC=CC(O)C(COP(=O)([O-])OCC[N+](C)(C)C)NC(=O)CCCCCCCCCCCCCCCCCCC (stereo not drawn) [SM(d16:1/20:0)]
8.46 | CCCCCCCCCCCCCC=CC(O)C(CO)NC(=O)CCCCCCCCCCCCCCCCCCCCC (stereo not drawn) [Cer(d18:1/22:0)]
4.54 | CC(C)CCCC(C)C1CCC2C3CC=C4CC(O)CCC4(C)C3CCC12C (stereo not drawn) [Cholesterol]
5.68 | CCCCCCCCCCCCCC=CC(O)C(COP(=O)([O-])OCC[N+](C)(C)C)NC(=O)CCCCCCCCCCCCCCC (stereo not drawn) [SM(d18:1/16:0)]
9.14 | CCCCCCCCCCCCCCCCCCCCCCCC(=O)NC(CO)C(O)CCCCCCCCCCCCCCC (stereo not drawn) [Cer(d18:0/24:0)]
6.81 | CCCCCCCCCCCCCCCCOCC(COP(=O)([O-])OCC[N+](C)(C)C)OC(=O)CCCCCCCCCCCCCCC (stereo not drawn) [PC(O-16:0/16:0)]
9.26 | CCCCCCCCCCCCCC=CC(O)C(CO)NC(=O)CCCCCCCCCCCCCCCCCCCCCCCC (stereo not drawn) [Cer(d18:1/25:0)]
6.63 | CCCCCCCCCCCCCCCCC(=O)OC(COC(=O)CCCCCCCCCCCCCCC)COP(=O)([O-])OCC[N+](C)(C)C (stereo not drawn) [PC(16:0/17:0)]
2.3 | CC(C=CC1=C(C)CCCC1(C)C)=CC=CC(C)=CCO [Retinol]
7.67 | CCCCCCCCCCCCCCCCCC(=O)OCC(COP(=O)([O-])OCC[N+](C)(C)C)OC(=O)CCCCCCCCCCCCCCCCC (stereo not drawn) [PC(18:0/18:0)]
5.95 | CCCCCCCCCCCCCCC=CC(O)C(COP(=O)([O-])OCC[N+](C)(C)C)NC(=O)CCCCCCCCCCCCCCC (stereo not drawn) [SM(d19:1/16:0)]

LC retention time [min] | Compound
7.27 | CCCCCCCCCCCC=CC(O)C(CO)NC(=O)CCCCCCCCCCCCCCCCCCC (stereo not drawn) [Cer(d16:1/20:0)]
6.47 | CCCCCCCCCCCCCCCCOCC(COP(=O)([O-])OCC[N+](C)(C)C)OC(=O)CCCCCCCCCCCCCC (stereo not drawn) [PC(O-16:0/15:0)]
7.57 | CCCCCCCCCCCC=CC(O)C(COP(=O)([O-])OCC[N+](C)(C)C)NC(=O)CCCCCCCCCCCCCCCCCCCCCC (stereo not drawn) [SM(d16:1/23:0)]
8.1 | CCCCCCCCCCCCCC=CC(O)C(COP(=O)([O-])OCC[N+](C)(C)C)NC(=O)CCCCCCCCCCCCCCCCCCCCCC (stereo not drawn) [SM(d18:1/23:0)]
2.7 | CCCCCCCCCCCCCCCCCCC(=O)OCC(O)COP(=O)([O-])OCC[N+](C)(C)C (stereo not drawn) [LPC(19:0/0:0)]
8.56 | CC1=CCCC(C)(C)C1/C=C/C(C)=C/C=C/C(C)=C/C=C/C=C(C)/C=C/C=C(C)/C=C/C1=C(C)CCCC1(C)C (stereo not drawn) [Alpha-carotene]
4.52 | CCCCCCCCCCCCCCCCCCCCCCCC(=O)OCC(O)COP(=O)([O-])OCC[N+](C)(C)C (stereo not drawn) [LPC(24:0/0:0)]
8.19 | CCCCCCCCCCCCCCCCCC(=O)OCC(CO)OC(=O)CCCCCCCCCCCCCCC (stereo not drawn) [DG(18:0/16:0)]
0.462 | CCCCCCCC(=O)OC(CC(=O)O)C[N+](C)(C)C (stereo not drawn) [Octanoylcarnitine CAR(8:0)]
7.86 | CCCCCCCCCCCCCC=CC(O)C(CO)NC(=O)CCCCCCCCCCCCCCCCCCC (stereo not drawn) [Cer(d18:1/20:0)]
6.41 | CCCCCCCCCCCCCC=CC(O)C(COP(=O)([O-])OCC[N+](C)(C)C)NC(=O)CCCCCCCCCCCCCCCCC (stereo not drawn) [SM(d18:1/18:0)]
3.6 | CC(C=CC=C(C)C=CC1=C(C)CC(O)CC1(C)C)=CC=CC=C(C)C=CC=C(C)C=CC1=C(C)CC(O)CC1(C)C (stereo not drawn) [Zeaxanthin]
0.609 | CCCCCCCCCC(=O)OC(CC(=O)[O-])C[N+](C)(C)C (stereo not drawn) [Decanoylcarnitine CAR(10:0)]
8.56 | CC1=C(/C=C/C(C)=C/C=C/C(C)=C/C=C/C=C(C)/C=C/C=C(C)/C=C/C2=C(C)CCCC2(C)C)C(C)(C)CCC1 [Beta-carotene]
7.86 | CCCCCCCCCCCCCC=CC(O)C(COC1OC(CO)C(OC2OC(CO)C(O)C(O)C2O)C(O)C1O)NC(=O)CCCCCCCCCCCCCCCCCCCCC (stereo not drawn) [LacCer(d18:1/22:0)]
5.75 | CCCCCCCCCCCCCC=CC(O)C(COC1OC(CO)C(OC2OC(CO)C(O)C(O)C2O)C(O)C1O)NC(=O)CCCCCCCCCCCCCCC (stereo not drawn) [LacCer(d18:1/16:0)]
8.54 | CCCCCCCCCCCC=CC(O)C(CO)NC(=O)CCCCCCCCCCCCCCCCCCCCCCC (stereo not drawn) [Cer(d16:1/24:0)]
7.9 | CCCCCCCCCCCC=CC(O)C(COP(=O)([O-])OCC[N+](C)(C)C)NC(=O)CCCCCCCCCCCCCCCCCCCCCCC (stereo not drawn) [SM(d16:1/24:0)]
4.34 | CCCCCCCCCCCCCCCCCCCCCCCC(=O)OC(CC(=O)[O-])C[N+](C)(C)C (stereo not drawn) [Tetracosanoylcarnitine CAR(24:0)]
6.13 | CCCCCCCCCCCCCCCCOCC(COP(=O)([O-])OCC[N+](C)(C)C)OC(=O)CCCCCCCCCCCCC (stereo not drawn) [PC(O-16:0/14:0)]
5.15 | CCCCCCCCCCCCCCCCCCCCCCCCCC(=O)OC(CC(=O)[O-])C[N+](C)(C)C (stereo not drawn) [Hexacosanoylcarnitine CAR(26:0)]

Compound | LC retention time [min]
CC(C=CC=C(C)C=CC1=C(C)CCCC1(C)C)=CC=CC=C(C)C=CC=C(C)C=CC1=C(C)CC(O)CC1(C)C (stereo not drawn) [Beta-cryptoxanthin] | 6.41
CCCCCCCCCCCCCCCCCC(=O)OCC(O)COP(=O)([O-])OCC[N+](C)(C)C (stereo not drawn) [LPC(18:0/0:0)] | 2.42
CCCCCCCCCCCCCCC=COCC(O)COP(=O)([O-])OCC[N+](C)(C)C (stereo not drawn) [LPC(P-16:0/0:0)] | 2.09
CCCCCCCCCCCCCCCC(=O)OC(CO)COP(=O)([O-])OCC[N+](C)(C)C (stereo not drawn) [LPC(0:0/16:0)] | 1.75
CCCCCCCCCCCCCC(=O)OCC(O)COP(=O)([O-])OCC[N+](C)(C)C (stereo not drawn) [LPC(14:0/0:0)] | 1.36
CCCCCCCCCCCCCCCCCCCCCC(=O)OCC(O)COP(=O)([O-])OCC[N+](C)(C)C (stereo not drawn) [LPC(22:0/0:0)] | 3.73
